Data set [1] is described as follows: Brain-to-plasma ratio (Kp) determination in Sprague-Dawley rats. To be noted: male, rat, po, 10 mg/kg.
Procedure: The brain-to-plasma ratio (Kp) was determined in male Sprague-Dawley rats (7-9 weeks old) four hours after a single oral dose. Rats were acclimated and given free access to standard rodent chow and water throughout the entire study. Test articles were formulated as a solution at 0.3, 0.4, 0.5, or 1.0 mg/mL in a vehicle comprised of 10:15:75 (v:v:v) dimethylacetamide (DMA):Solutol HS15:water and delivered orally at a rate of 10 mL/kg to three rats to achieve final doses of 3, 4, 5, or 10 mg/kg, respectively. At 4 hours post-dose, blood samples were collected via jugular vein cannula into tubes containing K2EDTA as the anticoagulant and stored on ice. Blood samples were then centrifuged at 4° C. at 6000 rpm for 5 minutes, and the resulting plasma was placed into tubes and stored frozen at −80° C. until analysis. Whole brain samples were also collected at 4 hours post-dose. The weight of each brain was measured and recorded, and samples were immediately stored on dry ice. Brain samples were then transferred to storage at −80° C. until analysis.
Prior to analysis, brain samples were combined with water (4 mL/1 gram of brain) and homogenized. Prior to injection, plasma and brain homogenate samples and standards were prepared for analysis by precipitation with acetonitrile or 1:1 (v:v) methanol:acetonitrile. Samples were then thoroughly mixed, centrifuged at 4000 rpm for 15 minutes, and the resulting supernatant was transferred for analysis. Test article concentrations in plasma and brain homogenate were then determined by LC-MS/MS and quantified against calibration standards prepared to known concentrations in matched blank (analyte-free) biological matrix. The Kp was then determined by dividing the dilution-corrected brain concentration by the plasma concentration from each rat. A brain density of 1 gram/mL was assumed for all calculations.
The target in data set [2] is CDK4/Cyclin D1 (Homo sapiens (Human), UniProt P11802). The data set is described as follows: CDK4/CyclinD1 enzymatic activity assay (TR-FRET). Type of data set: biochemical. To be noted: ATP 2 mM, read-out: CDK4_D1 IC50. The method in brief:
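Insect-cell CDK4/Cyclin D1 (1 nM) with ULight-4E-BP1 (100 nM) and 2 mM ATP in HEPES pH 7.4 buffer, preincubated 20 min with compound (9-dose, 3-fold dilutions); 10 mM MgCl2 started the reaction, run 60 min at 37 °C. EDTA/Eu-anti-phospho-4E-BP1 TR-FRET detection; IC50 from 4-parameter Hill fit.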

Data set [3] addresses CDK6/Cyclin D1 (Homo sapiens (Human), UniProt Q00534). Description: CDK6/CyclinD1 enzymatic activity assay (TR-FRET). To be noted: ATP 250 μM, read-out: CDK6_D1 IC50. Type of data set: biochemical. The method, then: CDK6/CyclinD1 Enzymatic Activity Assay
The inhibitory activity of compounds was evaluated in vitro using TR-FRET assay with white 384-well low volume microplate (Greiner Bio-One). CDK6/Cyclin D1 catalyzed phosphorylation of peptide in the presence and absence of compounds was measured and used in IC50 determination. Recombinant protein complex CDK6/Cyclin D1, expressed from insect cell, was purchased from ProQinase. Testing compounds were dissolved in DMSO at 0.1 mM and tested in 9-dose IC50 mode. The reaction mixture was prepared by mixing CDK6/Cyclin D1 (1 nM final), ULight-4E-BP1 (100 nM final, Perkinelmer, TRF0128-D), and ATP (250 μM final) in assay buffer (20 mM of HEPES pH 7.4, 1 mM of EGTA, 0.05% BSA, 0.005% Tween 20, and 1 mM TCEP). The compound of interest in DMSO was added to each well in 3-fold serial dilution by dispenser (TECAN D300E). After 20 minutes preincubation at room temperature, 0.1 μL MgCl2 (10 mM final) was added to initiate the reaction. Following a 60 minutes incubation at 37° C., the reaction was stopped by addition of 2 μL of quenching buffer consisting of Lance detection buffer (Perkinelmer CR97-100C), 2 nM LANCE Ultra Europium-anti-P-4E-BP1 (Perkinelmer, TRF0216-D), 10 mM EDTA, and incubate at room temperature for additional 60 minutes in dark. The reaction signal was measured by Envision multimode plate reader (PerkinElmer, 2102-0010). IC50 values were determined by fitting the data to the standard 4 parameters with Hill Slope using GraphPad Prism software.

Data set [4] has as its system MCF7 adenocarcinoma cell line. The data set is described as follows: Cell proliferation studies in MCF7 cells (ATP-Lite, 10 days). It is filed as cell-based. To be noted: Homo sapiens, 240 h, read-out: PROLIFERATION_CTG_MCF7 IC50. Summed up:
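Cells were seeded at 100 or 200 per well in DMEM with 10% FBS and dosed in quadruplicate over a 9-point 3-fold dilution. Incubation lasted 10 days at 37 °C, with media exchange and re-dosing on day 5. Viability was read by ATP-Lite luminescence and normalised to background and DMSO, giving IC50.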

Where [5] appears, read: brain (homogenate) versus plasma.

Where only a bound is given, the exact number is not on record here.

Sequence of CDK4/Cyclin D1 (P11802 whole entry): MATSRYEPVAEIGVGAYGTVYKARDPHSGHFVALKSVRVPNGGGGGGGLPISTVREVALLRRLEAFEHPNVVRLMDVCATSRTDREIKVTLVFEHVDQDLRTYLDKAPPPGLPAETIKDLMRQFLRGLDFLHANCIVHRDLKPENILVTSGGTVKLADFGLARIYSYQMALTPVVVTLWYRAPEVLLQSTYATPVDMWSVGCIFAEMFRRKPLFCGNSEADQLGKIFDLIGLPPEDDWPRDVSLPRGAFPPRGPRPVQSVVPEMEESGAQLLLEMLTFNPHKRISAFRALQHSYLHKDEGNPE
Sequence of CDK4/Cyclin D1 (P24385 whole entry partner): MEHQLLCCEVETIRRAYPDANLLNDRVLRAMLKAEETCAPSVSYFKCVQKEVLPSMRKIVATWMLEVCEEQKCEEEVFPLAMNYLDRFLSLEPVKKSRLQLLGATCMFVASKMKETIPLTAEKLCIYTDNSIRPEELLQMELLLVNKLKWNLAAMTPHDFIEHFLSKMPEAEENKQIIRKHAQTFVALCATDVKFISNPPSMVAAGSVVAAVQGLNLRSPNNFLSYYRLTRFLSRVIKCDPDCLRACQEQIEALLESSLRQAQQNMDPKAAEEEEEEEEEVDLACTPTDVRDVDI
Sequence of CDK6/Cyclin D1 (Q00534 whole entry): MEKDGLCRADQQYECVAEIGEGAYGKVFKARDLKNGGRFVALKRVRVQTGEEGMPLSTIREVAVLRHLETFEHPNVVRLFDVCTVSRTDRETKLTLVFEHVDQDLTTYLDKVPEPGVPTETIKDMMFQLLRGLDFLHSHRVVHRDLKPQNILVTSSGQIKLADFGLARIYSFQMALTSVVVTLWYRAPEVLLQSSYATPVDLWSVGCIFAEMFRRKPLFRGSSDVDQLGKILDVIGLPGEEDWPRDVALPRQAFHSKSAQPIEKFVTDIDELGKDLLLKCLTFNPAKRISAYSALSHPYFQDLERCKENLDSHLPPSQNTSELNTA
Sequence of CDK6/Cyclin D1 (P24385 whole entry partner): as the sequence (P24385 whole entry partner) above

For `Cc1c(-c2nc(Nc3ccc(C4CCCN(C)C4)cn3)ncc2F)sc2c1ncn2C(C)C` (single isomer, unassigned) [Example 125, 5-Fluoro-N-[5-[-1-methylpiperidin-3-yl]pyridin-2-yl]-4-(6-methyl-3-propan-2-ylthieno[2,3-d]imidazol-5-yl)pyrimidin-2-amine], the partition ratio (Kp) at 4 h in data set [1] (setting [5]) lay in the range of 1 to 3. Besides, the IC50 in data set [2] is not above 0.02 µM; in data set [3], not above 0.02 µM; in data set [4] it was 0.02 to 0.2 µM.
Consider `CCN1CCN(c2ccc(Nc3ncc(F)c(-c4sc5c(nc(C)n5C5CCCC5)c4C)n3)nc2)CC1` [Example 1, 4-(3-Cyclopentyl-2,6-dimethyl-3H-thieno[2,3-d]imidazol-5-yl)-N-(5-(4-ethylpiperazin-1-yl)pyridin-2-yl)-5-fluoropyrimidin-2-amine], for which the Kp at 4 h in data set [1] (setting [5]) is 1 to 3. The IC50 in data set [2] is not above 0.02 µM; in data set [3], 0.02 to 0.2 µM; in data set [4], 0.02 to 0.2 µM.
For `CCN1CCN(c2ccc(Nc3ncc(F)c(-c4sc5c(nc(C)n5C(C)C)c4C)n3)nc2)CC1` [Example 2, N-(5-(4-Ethylpiperazin-1-yl)pyridin-2-yl)-5-fluoro-4-(3-isopropyl-2,6-dimethyl-3H-thieno[2,3-d]imidazol-5-yl)pyrimidin-2-amine], the Kp at 4 h in data set [1] (setting [5]) is 1 to 3. Also, the IC50 in data set [2], in data set [3] and in data set [4] was not above 0.02 µM in each case.
Take `CCN1CCN(Cc2ccc(Nc3ncc(F)c(-c4sc5c(nc(C)n5C(C)C)c4C)n3)nc2)CC1` [Example 3, N-(5-((4-Ethylpiperazin-1-yl)methyl)pyridin-2-yl)-5-fluoro-4-(3-isopropyl-2,6-dimethyl-3H-thieno[2,3-d]imidazol-5-yl)pyrimidin-2-amine]: in data set [1] (setting [5]), the Kp at 4 h is less than 1. In addition, the IC50 was not above 0.02 µM in data set [2], 0.02 to 0.2 µM in data set [3] and 0.02 to 0.2 µM in data set [4].
Turning to `CCN1CCN(c2ccc(Nc3ncc(F)c(-c4sc5c(nc(C)n5C5CCC5)c4C)n3)nc2)CC1` [Example 4, 4-(3-Cyclobutyl-2,6-dimethylthieno[2,3-d]imidazol-5-yl)-N-[5-(4-ethylpiperazin-1-yl)pyridin-2-yl]-5-fluoro-pyrimidin-2-amine], the Kp at 4 h in data set [1] (setting [5]) fell in the range of 1 to 3. Further, the IC50 in data set [2] is not above 0.02 µM; in data set [3], not above 0.02 µM; in data set [4], 0.02 to 0.2 µM.
Regarding `CCN1CCC(c2ccc(Nc3ncc(F)c(-c4sc5c(nc(C)n5C5CCC5)c4C)n3)nc2)CC1` [Example 8, 4-(3-Cyclobutyl-2,6-dimethyl-3H-thieno[2,3-d]imidazol-5-yl)-N-(5-(1-ethylpiperidin-4-yl)pyridin-2-yl)-5-fluoro-pyrimidin-2-amine], the partition ratio (Kp) at 4 h in data set [1] (setting [5]) fell in the range of 1 to 3. Further, the figures for the IC50 in data set [2] and in data set [4] were not above 0.02 µM and 0.02 to 0.2 µM, respectively.
`Cc1c(-c2nc(Nc3ccc(N4CCN(C)CC4)cn3)ncc2F)sc2c1nc(C)n2C(C)C` [Example 9, 5-Fluoro-4-(3-isopropyl-2,6-dimethyl-3H-thieno[2,3-d]imidazol-5-yl)-N-(5-(4-methylpiperazin-1-yl)pyridin-2-yl)pyrimidin-2-amine]: in data set [1] (setting [5]), the Kp at 4 h was in the range of 1 to 3. The IC50 in data set [2], in data set [3] and in data set [4] was not above 0.02 µM each time.
Turning to `CCN1CC2(C1)CN(c1ccc(Nc3ncc(F)c(-c4cc5nccc(C(C)(C)O)c5s4)n3)nc1)C2` [Example 21, 2-[2-[2-[[5-(6-Ethyl-2,6-diazaspiro[3.3]heptan-2-yl)pyridin-2-yl]amino]-5-fluoropyrimidin-4-yl]thieno[3,2-b]pyridin-7-yl]propan-2-ol], the Kp at 4 h in data set [1] (brain / plasma) was less than 1. Moreover, the figures for the IC50 in data set [2] and in data set [4] were not above 0.02 µM and 0.02 to 0.2 µM, respectively.
In the case of `CCN1CC2(C1)CN(c1ccc(Nc3ncc(F)c(-c4cc5nccc(C(C)C)c5s4)n3)nc1)C2` [Example 23, N-[5-(6-Ethyl-2,6-diazaspiro[3.3]heptan-2-yl)pyridin-2-yl]-5-fluoro-4-(7-propan-2-ylthieno[3,2-b]pyridin-2-yl)pyrimidin-2-amine], the partition ratio (Kp) at 4 h in data set [1] (setting [5]) is more than 3. For the same compound, the IC50 was not above 0.02 µM in data set [2], 0.02 to 0.2 µM in data set [3] and 0.02 to 0.2 µM in data set [4].
As for `CCN1CCN(c2ccc(Nc3ncc(F)c(-c4cc5c(s4)c(C(C)C)cc[n+]5[O-])n3)nc2)CC1` [Example 50, N-[5-(4-Ethylpiperazin-1-yl)pyridin-2-yl]-5-fluoro-4-(4-oxido-7-propan-2-ylthieno[3,2-b]pyridin-4-ium-2-yl)pyrimidin-2-amine], the partition ratio (Kp) at 4 h in data set [1] (setting [5]) lay within 1 to 3. Also, the IC50 in data set [2], in data set [3] and in data set [4] was not above 0.02 µM throughout.
`Cc1c(-c2nc(Nc3ccc(N4CCN(C)CC4)cn3)ncc2F)sc2c(C(C)C)cn(C)c(=O)c12` [Example 51, 2-[5-Fluoro-2-[[5-(4-methylpiperazin-1-yl)pyridin-2-yl]amino]pyrimidin-4-yl]-3,5-dimethyl-7-propan-2-ylthieno[3,2-c]pyridin-4-one]: the Kp at 4 h in data set [1] (brain / plasma) was more than 3. In addition, the IC50 was not above 0.02 µM in data set [2], not above 0.02 µM in data set [3] and 0.02 to 0.2 µM in data set [4].
In the case of `CCN1CC2(C1)CN(c1ccc(Nc3ncc(F)c(-c4sc5c(nc(C)n5C(C)C)c4C)n3)nc1)C2` [Example 52, 4-(2,6-Dimethyl-3-propan-2-ylthieno[2,3-d]imidazol-5-yl)-N-[5-(6-ethyl-2,6-diazaspiro[3.3]heptan-2-yl)pyridin-2-yl]-5-fluoropyrimidin-2-amine], the Kp at 4 h in data set [1] (setting [5]) is 1 to 3. Moreover, the IC50 in data set [2], in data set [3] and in data set [4] was not above 0.02 µM in each case.
Regarding `CCN1CCN(C(=O)c2ccc(Nc3ncc(F)c(-c4cc5nc(C)n(C(C)C)c5s4)n3)nc2)CC1` [Example 54, (4-Ethylpiperazin-1-yl)-[6-[[5-fluoro-4-(2-methyl-3-propan-2-ylthieno[2,3-d]imidazol-5-yl)pyrimidin-2-yl]amino]pyridin-3-yl]methanone], the Kp at 4 h in data set [1] (setting [5]) was less than 1. In addition, the results for the IC50 in data set [2], in data set [3] and in data set [4] were not above 0.02 µM, 0.02 to 0.2 µM and 0.02 to 0.2 µM, respectively.
In the case of `CCN1CC2(C1)CN(c1ccc(Nc3ncc(F)c(-c4sc5c(C(C)C)n(C)nc5c4C)n3)nc1)C2` [Example 55, 4-(2,6-Dimethyl-3-propan-2-ylthieno[3,2-c]pyrazol-5-yl)-N-[5-(6-ethyl-2,6-diazaspiro[3.3]heptan-2-yl)pyridin-2-yl]-5-fluoropyrimidin-2-amine], in data set [1] (setting [5]), the Kp at 4 h is more than 3. Besides, the results for the IC50 in data set [2], in data set [3] and in data set [4] were not above 0.02 µM, not above 0.02 µM and 0.02 to 0.2 µM, respectively.
Consider `Cc1c(-c2nc(Nc3ccc(C4CCN(C)CC4)cn3)ncc2F)sc2c(C(C)C)cn(C)c(=O)c12` [Example 56, 2-(5-Fluoro-2-((5-(1-methylpiperidin-4-yl)pyridin-2-yl)amino)pyrimidin-4-yl)-7-isopropyl-3,5-dimethylthieno[3,2-c]pyridin-4(5H)-one], for which, in data set [1] (setting [5]), the Kp at 4 h is more than 3. Moreover, the results for the IC50 in data set [2], in data set [3] and in data set [4] were not above 0.02 µM, not above 0.02 µM and 0.02 to 0.2 µM, respectively.
Consider `[2H]C([2H])([2H])n1cc(C(C)C)c2sc(-c3nc(Nc4ccc(C5CCN(C)CC5)cn4)ncc3F)c(C)c2c1=O` [Example 85, 2-(5-Fluoro-2-((5-(1-methylpiperidin-4-yl)pyridin-2-yl)amino)pyrimidin-4-yl)-7-isopropyl-3-methyl-5-(methyl-d3)thieno[3,2-c]pyridin-4(5H)-one], for which the Kp at 4 h in data set [1] (setting [5]) was more than 3. Moreover, the IC50 was not above 0.02 µM in data set [2] and 0.02 to 0.2 µM in data set [4].
Take `CCN1CCN(c2ccc(Nc3ncc(F)c(-c4sc5c(C(C)C)ccnc5c4C(F)(F)F)n3)nc2)CC1` [Example 121, N-[5-(4-Ethylpiperazin-1-yl)pyridin-2-yl]-5-fluoro-4-[7-propan-2-yl-3-(trifluoromethyl)thieno[3,2-b]pyridin-2-yl]pyrimidin-2-amine]: the figures for the IC50 in data set [2], in data set [3] and in data set [4] were not above 0.02 µM, 0.02 to 0.2 µM and 0.02 to 0.2 µM, respectively.

Values taken from patent publication US11685744B2, “CDK inhibitors and their use as pharmaceuticals” (Prelude Therapeutics, Incorporated, priority 2020, dated 2023).
